This is an account of results in the supplement of paper PMC10307832.

What all share (experiment): relative viability (nuclei count vs DMSO), 5 days (fraction); higher = more cells survive
Compound in the experiment “BMX-IN-1 + Navitoclax”: C=CC(=O)Nc1cc(-n2c(=O)ccc3cnc4ccc(-c5ccc(NS(C)(=O)=O)cc5)cc4c32)ccc1C [BMX-IN-1] + CC1(C)CCC(c2ccc(Cl)cc2)=C(CN2CCN(c3ccc(C(=O)NS(=O)(=O)c4ccc(N[C@H](CCN5CCOCC5)CSc5ccccc5)c(S(=O)(=O)C(F)(F)F)c4)cc3)CC2)C1 [Navitoclax] (partner 0.5 µM)
In a few lines: (§1)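 The day after seeding in 1536-well plates, lung cancer cell lines were treated by pin tool with a single drug, or with a fixed anchor-drug dose together with five library-drug doses (not always all listed) in √10 steps. After 5 days, a combined fix-and-stain solution (final 0.05% Triton X-100, 1% formaldehyde, 1 ug/ml Hoechst) was added. Nuclei counted on 4× images gave relative viability as treated counts over vehicle counts, reported as the median of duplicate plates.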

Compound in the experiment “BMX-IN-1 + AZD7762”: C=CC(=O)Nc1cc(-n2c(=O)ccc3cnc4ccc(-c5ccc(NS(C)(=O)=O)cc5)cc4c32)ccc1C [BMX-IN-1] + NC(=O)Nc1cc(-c2cccc(F)c2)sc1C(=O)N[C@H]1CCCNC1 [AZD7762] (partner 0.2 µM)
In a few lines:
as §1

Compound in the experiment “PAC-1 + Palbociclib”: C=CCc1cccc(/C=N/NC(=O)CN2CCN(Cc3ccccc3)CC2)c1O [PAC-1] + CC(=O)c1c(C)c2cnc(Nc3ccc(N4CCNCC4)cn3)nc2n(C2CCCC2)c1=O [Palbociclib] (partner 0.5 µM)
In outline:
as §1

Compound in the experiment “PAC-1 + Luminespib”: C=CCc1cccc(/C=N/NC(=O)CN2CCN(Cc3ccccc3)CC2)c1O [PAC-1] + CCNC(=O)c1noc(-c2cc(C(C)C)c(O)cc2O)c1-c1ccc(CN2CCOCC2)cc1 [Luminespib] (partner 0.01 µM)
In outline: as §1

Compound in the experiment “PAC-1 + Lapatinib”: C=CCc1cccc(/C=N/NC(=O)CN2CCN(Cc3ccccc3)CC2)c1O [PAC-1] + CS(=O)(=O)CCNCc1ccc(-c2ccc3ncnc(Nc4ccc(OCc5cccc(F)c5)c(Cl)c4)c3c2)o1 [Lapatinib] (partner 2 µM)
In outline: as §1

As to NCI-H2170, the relative viability amounted to 0.742 with BMX-IN-1 + Navitoclax (first compound 0.02 µM); 0.634 with BMX-IN-1 + Navitoclax (first compound 0.2 µM); 0.689 with BMX-IN-1 + Navitoclax (first compound 0.6325 µM); 0.623 in the experiment with BMX-IN-1 + Navitoclax (first compound 2 µM); 0.945 with BMX-IN-1 + AZD7762 (first compound 0.02 µM); 0.98 with BMX-IN-1 + AZD7762 (first compound 0.2 µM). Besides, the relative viability with BMX-IN-1 + AZD7762 (first compound 0.6325 µM) amounted to 1.03; with BMX-IN-1 + AZD7762 (first compound 2 µM) it was 0.928; in the experiment with PAC-1 + Palbociclib (first compound 0.02 µM), 0.417; in the experiment with PAC-1 + Palbociclib (first compound 0.06325 µM) it was 0.39; in the experiment with PAC-1 + Palbociclib (first compound 0.2 µM) it was 0.376; in the experiment with PAC-1 + Palbociclib (first compound 2 µM), 0.343. Moreover, the relative viability in the experiment with PAC-1 + Luminespib (first compound 0.02 µM) came out at 0.64; with PAC-1 + Luminespib (first compound 0.06325 µM) it was 0.607; in the experiment with PAC-1 + Luminespib (first compound 0.2 µM), 0.542; with PAC-1 + Luminespib (first compound 2 µM), 0.606; with PAC-1 + Lapatinib (first compound 0.02 µM), 0.247; with PAC-1 + Lapatinib (first compound 0.06325 µM), 0.258. Also, the relative viability was found to be 0.255 with PAC-1 + Lapatinib (first compound 0.2 µM) and 0.264 with PAC-1 + Lapatinib (first compound 2 µM).
Regarding NCI-H2347, the relative viability in the experiment with BMX-IN-1 + Navitoclax (first compound 0.02 µM) turned out to be 0.978; with BMX-IN-1 + Navitoclax (first compound 0.2 µM), 0.887; with BMX-IN-1 + Navitoclax (first compound 0.6325 µM) it was 0.785; with BMX-IN-1 + Navitoclax (first compound 2 µM), 0.871; in the experiment with BMX-IN-1 + AZD7762 (first compound 0.02 µM) it was 0.787; with BMX-IN-1 + AZD7762 (first compound 0.2 µM), 0.833. Also, the relative viability with BMX-IN-1 + AZD7762 (first compound 0.6325 µM) was 0.712; with BMX-IN-1 + AZD7762 (first compound 2 µM), 0.945; with PAC-1 + Palbociclib (first compound 0.02 µM), 0.499; with PAC-1 + Palbociclib (first compound 0.06325 µM), 0.435; with PAC-1 + Palbociclib (first compound 0.2 µM), 0.477; with PAC-1 + Palbociclib (first compound 2 µM), 0.414. For the same cell line, the relative viability came to 0.302 with PAC-1 + Luminespib (first compound 0.02 µM); 0.427 in the experiment with PAC-1 + Luminespib (first compound 0.06325 µM); 0.536 in the experiment with PAC-1 + Luminespib (first compound 0.2 µM); 0.583 with PAC-1 + Luminespib (first compound 2 µM); 0.947 with PAC-1 + Lapatinib (first compound 0.02 µM); 0.885 with PAC-1 + Lapatinib (first compound 0.06325 µM). Moreover, the relative viability in the experiment with PAC-1 + Lapatinib (first compound 0.2 µM) is 0.859; with PAC-1 + Lapatinib (first compound 2 µM), 0.892.
Turning to NCI-H2405, the relative viability was 0.957 in the experiment with BMX-IN-1 + Navitoclax (first compound 0.02 µM); 0.846 with BMX-IN-1 + Navitoclax (first compound 0.2 µM); 0.915 in the experiment with BMX-IN-1 + Navitoclax (first compound 0.6325 µM); 0.836 in the experiment with BMX-IN-1 + Navitoclax (first compound 2 µM); 0.831 in the experiment with BMX-IN-1 + AZD7762 (first compound 0.02 µM); 0.941 in the experiment with BMX-IN-1 + AZD7762 (first compound 0.2 µM). Also, the relative viability with BMX-IN-1 + AZD7762 (first compound 0.6325 µM) came out at 0.762; with BMX-IN-1 + AZD7762 (first compound 2 µM), 0.805; in the experiment with PAC-1 + Palbociclib (first compound 0.02 µM) it was 0.53; in the experiment with PAC-1 + Palbociclib (first compound 0.06325 µM), 0.502; in the experiment with PAC-1 + Palbociclib (first compound 0.2 µM) it was 0.502; in the experiment with PAC-1 + Palbociclib (first compound 2 µM), 0.509. In addition, the relative viability with PAC-1 + Luminespib (first compound 0.02 µM) is 0.611; with PAC-1 + Luminespib (first compound 0.06325 µM), 0.652; in the experiment with PAC-1 + Luminespib (first compound 0.2 µM) it was 0.656; with PAC-1 + Luminespib (first compound 2 µM), 0.789; with PAC-1 + Lapatinib (first compound 0.02 µM), 1.03; with PAC-1 + Lapatinib (first compound 0.06325 µM), 1.17. Besides, the relative viability with PAC-1 + Lapatinib (first compound 0.2 µM) was found to be 1.14; in the experiment with PAC-1 + Lapatinib (first compound 2 µM), 1.24.
For NCI-H3122, the relative viability with BMX-IN-1 + Navitoclax (first compound 0.02 µM) came to 1.1; with BMX-IN-1 + Navitoclax (first compound 0.2 µM), 1.06; with BMX-IN-1 + Navitoclax (first compound 0.6325 µM) it was 1.02; with BMX-IN-1 + Navitoclax (first compound 2 µM), 1.05; in the experiment with BMX-IN-1 + AZD7762 (first compound 0.02 µM), 1.22; with BMX-IN-1 + AZD7762 (first compound 0.2 µM), 1.16. The relative viability with BMX-IN-1 + AZD7762 (first compound 0.6325 µM) stood at 1.11; in the experiment with BMX-IN-1 + AZD7762 (first compound 2 µM) it was 1.07; with PAC-1 + Palbociclib (first compound 0.02 µM) it was 0.188; in the experiment with PAC-1 + Palbociclib (first compound 0.06325 µM) it was 0.179; in the experiment with PAC-1 + Palbociclib (first compound 0.2 µM) it was 0.198; with PAC-1 + Palbociclib (first compound 2 µM), 0.214. Further, the relative viability with PAC-1 + Luminespib (first compound 0.02 µM) was determined as 0.119; in the experiment with PAC-1 + Luminespib (first compound 0.06325 µM), 0.0845; in the experiment with PAC-1 + Luminespib (first compound 0.2 µM), 0.0804; with PAC-1 + Luminespib (first compound 2 µM), 0.0955; with PAC-1 + Lapatinib (first compound 0.02 µM) it was 1.01; with PAC-1 + Lapatinib (first compound 0.06325 µM), 1.03. The relative viability with PAC-1 + Lapatinib (first compound 0.2 µM) turned out to be 0.983; in the experiment with PAC-1 + Lapatinib (first compound 2 µM), 0.953.
On to PC-3 [JPC-3], for which the relative viability with BMX-IN-1 + Navitoclax (first compound 0.02 µM) was determined as 0.728; in the experiment with BMX-IN-1 + Navitoclax (first compound 0.2 µM), 0.823; in the experiment with BMX-IN-1 + Navitoclax (first compound 0.6325 µM), 0.746; with BMX-IN-1 + Navitoclax (first compound 2 µM) it was 0.871; with BMX-IN-1 + AZD7762 (first compound 0.02 µM) it was 0.886; with BMX-IN-1 + AZD7762 (first compound 0.2 µM), 0.925. Besides, the relative viability was found to be 0.918 with BMX-IN-1 + AZD7762 (first compound 0.6325 µM); 0.847 in the experiment with BMX-IN-1 + AZD7762 (first compound 2 µM); 0.567 with PAC-1 + Palbociclib (first compound 0.02 µM); 0.502 with PAC-1 + Palbociclib (first compound 0.06325 µM); 0.535 with PAC-1 + Palbociclib (first compound 0.2 µM); 0.514 with PAC-1 + Palbociclib (first compound 2 µM). Also, the relative viability came to 0.774 with PAC-1 + Luminespib (first compound 0.02 µM); 0.644 with PAC-1 + Luminespib (first compound 0.06325 µM); 0.53 with PAC-1 + Luminespib (first compound 0.2 µM); 0.664 with PAC-1 + Luminespib (first compound 2 µM); 0.416 in the experiment with PAC-1 + Lapatinib (first compound 0.02 µM); 0.474 with PAC-1 + Lapatinib (first compound 0.06325 µM). In addition, the relative viability with PAC-1 + Lapatinib (first compound 0.2 µM) is 0.447; in the experiment with PAC-1 + Lapatinib (first compound 2 µM), 0.465.
For PC-14, the relative viability with BMX-IN-1 + Navitoclax (first compound 0.02 µM) was determined as 1.02; in the experiment with BMX-IN-1 + Navitoclax (first compound 0.2 µM) it was 1.29; with BMX-IN-1 + Navitoclax (first compound 0.6325 µM), 1.01; with BMX-IN-1 + Navitoclax (first compound 2 µM), 1.06; in the experiment with BMX-IN-1 + AZD7762 (first compound 0.02 µM), 0.404; with BMX-IN-1 + AZD7762 (first compound 0.2 µM) it was 0.459. For the same cell line, the relative viability in the experiment with BMX-IN-1 + AZD7762 (first compound 0.6325 µM) is 0.408; with BMX-IN-1 + AZD7762 (first compound 2 µM) it was 0.312; in the experiment with PAC-1 + Palbociclib (first compound 0.02 µM), 0.586; with PAC-1 + Palbociclib (first compound 0.06325 µM), 0.504; in the experiment with PAC-1 + Palbociclib (first compound 0.2 µM), 0.487; in the experiment with PAC-1 + Palbociclib (first compound 2 µM), 0.606. In addition, the relative viability came out at 0.127 with PAC-1 + Luminespib (first compound 0.02 µM); 0.172 with PAC-1 + Luminespib (first compound 0.06325 µM); 0.151 in the experiment with PAC-1 + Luminespib (first compound 0.2 µM); 0.252 with PAC-1 + Luminespib (first compound 2 µM); 0.324 with PAC-1 + Lapatinib (first compound 0.02 µM); 0.315 with PAC-1 + Lapatinib (first compound 0.06325 µM). Besides, the relative viability in the experiment with PAC-1 + Lapatinib (first compound 0.2 µM) was 0.275; with PAC-1 + Lapatinib (first compound 2 µM) it was 0.321.
RERF-LC-KJ: the relative viability amounted to 0.821 in the experiment with BMX-IN-1 + Navitoclax (first compound 0.02 µM); 0.994 with BMX-IN-1 + Navitoclax (first compound 0.2 µM); 1.3 with BMX-IN-1 + Navitoclax (first compound 0.6325 µM); 0.749 in the experiment with BMX-IN-1 + Navitoclax (first compound 2 µM); 1.1 with BMX-IN-1 + AZD7762 (first compound 0.02 µM); 0.957 in the experiment with BMX-IN-1 + AZD7762 (first compound 0.2 µM). Besides, the relative viability with BMX-IN-1 + AZD7762 (first compound 0.6325 µM) amounted to 1.3; in the experiment with BMX-IN-1 + AZD7762 (first compound 2 µM), 1.19; in the experiment with PAC-1 + Palbociclib (first compound 0.02 µM), 1.13; with PAC-1 + Palbociclib (first compound 0.06325 µM), 1.02; with PAC-1 + Palbociclib (first compound 0.2 µM), 0.997; with PAC-1 + Palbociclib (first compound 2 µM) it was 0.912. Moreover, the relative viability was 1.22 in the experiment with PAC-1 + Luminespib (first compound 0.02 µM); 1.2 in the experiment with PAC-1 + Luminespib (first compound 0.06325 µM); 1.16 with PAC-1 + Luminespib (first compound 0.2 µM); 1.06 with PAC-1 + Luminespib (first compound 2 µM); 0.857 with PAC-1 + Lapatinib (first compound 0.02 µM); 0.817 in the experiment with PAC-1 + Lapatinib (first compound 0.06325 µM). Further, the relative viability with PAC-1 + Lapatinib (first compound 0.2 µM) came out at 0.864; with PAC-1 + Lapatinib (first compound 2 µM), 0.87.
